From patent US20260327191A1, “GSK3a INHIBITORS AND METHODS OF USE THEREOF” (Blueprint Medicines Corporation, priority 2023, published 2026)

Tests used:
human GSK3α = biological target: T1, human GSK3α (Homo sapiens, UniProt P49840); assay: In vitro enzymatic activity assay, GSK3α; format: biochemical; settings: 1.0 mM ATP, 1.0 μM peptide substrate, 120 min, 25° C, read-out: Enzyme GSK3α (IC50)
T1 construct: Full length human GSK3α or GSK3B expressed as N-terminal GST fusion proteins; GST (N); purchased Carna Biosciences (Japan); host or cells: baculovirus host

GSK3A = biological target: T2, GSK3A (Homo sapiens, UniProt P49840); assay: NanoBRET cellular target engagement assay, Nanoluc-GSK3A in HEK293 cells; format: cell-based; settings: NanoBRET GSK3α IC50, HEK293 cells, tracer K-8, 2 hours, 37° C
T2 construct: expressed in transfected cells

GSK3B [1] = biological target: T3, GSK3B (Homo sapiens, UniProt P49841); assay: NanoBRET cellular target engagement assay, Nanoluc-GSK3B in HEK293 cells; format: cell-based; design: expressed in transfected cells; settings: NanoBRET GSK3β IC50, HEK293 cells, tracer K-8, 2 hours, 37° C
GSK3B [2] = biological target: T3, GSK3B; assay: In vitro enzymatic activity assay, GSK3β; format: biochemical; design: Full length human GSK3α or GSK3B expressed as N-terminal GST fusion proteins; GST (N); purchased Carna Biosciences (Japan); host or cells: baculovirus host; settings: 1.0 mM ATP, 1.0 μM peptide substrate, 120 min, 25° C, read-out: Enzyme GSK3β (IC50)

T2 sequence (P49840 whole entry): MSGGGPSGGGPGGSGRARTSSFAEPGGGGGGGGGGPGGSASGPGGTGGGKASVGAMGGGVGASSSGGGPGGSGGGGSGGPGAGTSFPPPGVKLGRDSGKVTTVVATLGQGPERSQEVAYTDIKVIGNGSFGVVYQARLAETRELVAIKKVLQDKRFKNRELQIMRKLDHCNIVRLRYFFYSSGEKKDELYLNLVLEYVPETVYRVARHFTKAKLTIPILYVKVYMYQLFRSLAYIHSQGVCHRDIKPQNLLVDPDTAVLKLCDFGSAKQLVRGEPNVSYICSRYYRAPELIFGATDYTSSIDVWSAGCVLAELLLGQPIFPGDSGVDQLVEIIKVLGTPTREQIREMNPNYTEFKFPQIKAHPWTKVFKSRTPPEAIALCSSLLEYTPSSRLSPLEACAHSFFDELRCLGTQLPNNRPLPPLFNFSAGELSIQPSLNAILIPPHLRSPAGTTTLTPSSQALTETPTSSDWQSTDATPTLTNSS
T1 sequence (P49840 whole entry, the tested form may be a part): as the sequence (P49840 whole entry) above
T3 sequence (P49841 whole entry, the tested form may be a part): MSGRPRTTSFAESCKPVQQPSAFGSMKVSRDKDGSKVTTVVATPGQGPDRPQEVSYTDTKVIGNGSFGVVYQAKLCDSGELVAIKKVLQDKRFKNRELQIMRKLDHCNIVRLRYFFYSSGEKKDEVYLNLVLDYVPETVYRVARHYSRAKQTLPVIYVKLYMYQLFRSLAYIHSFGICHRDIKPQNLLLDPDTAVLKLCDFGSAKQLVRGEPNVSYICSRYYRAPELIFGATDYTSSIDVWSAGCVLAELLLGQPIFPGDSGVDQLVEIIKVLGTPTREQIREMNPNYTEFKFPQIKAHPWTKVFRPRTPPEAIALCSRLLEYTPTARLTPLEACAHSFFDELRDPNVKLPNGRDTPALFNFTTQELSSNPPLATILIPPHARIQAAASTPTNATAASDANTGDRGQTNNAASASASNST

Row | IC50 (human GSK3α) | IC50 (GSK3A) | IC50 (GSK3B [1]) | IC50 (GSK3B [2]) | SMILES
1 | 19.3 nM | 7.2 nM | 577 nM | 1130 nM | CNCc1cncc(NC(=O)c2c(N)ncn(-c3c(C)cc(C(F)F)cc3C)c2=O)c1 [Example 105, 4-amino-1-(4-(difluoromethyl)-2,6-dimethylphenyl)-N-(5-((methylamino)methyl)pyridin-3-yl)-6-oxo-1,6-dihydropyrimidine-5-carboxamide]
2 | 4.5 nM | 2.8 nM | 195 nM | 279 nM | CCC[C@@H](N)c1cncc(NC(=O)c2c(N)ncn(-c3c(C)cc(C(F)F)cc3C)c2=O)c1 [Example 106, (R)-4-amino-N-(5-(1-aminobutyl)pyridin-3-yl)-1-(4-(difluoromethyl)-2,6-dimethylphenyl)-6-oxo-1,6-dihydropyrimidine-5-carboxamide]
3 | 15.6 nM | 8.4 nM | 567 nM | 803 nM | Nc1ncn(-c2c(Cl)cc(OC(F)(F)F)cc2Cl)c(=O)c1C(=O)Nc1cncc([C@@H]2CCCN2)c1 [Example 109, (S)-4-amino-1-(2,6-dichloro-4-(trifluoromethoxy)phenyl)-6-oxo-N-(5-(pyrrolidin-2-yl)pyridin-3-yl)-1,6-dihydropyrimidine-5-carboxamide]
4 | 9.9 nM | 3.7 nM | 335 nM | 568 nM | Cc1cc(OC(F)(F)F)cc(C)c1-n1cnc(N)c(C(=O)Nc2cncc([C@H]3CCCCN3)c2)c1=O [Example 110, (R)-4-amino-1-(2,6-dimethyl-4-(trifluoromethoxy)phenyl)-6-oxo-N-(5-(piperidin-2-yl)pyridin-3-yl)-1,6-dihydropyrimidine-5-carboxamide]
5 | 11.2 nM | 9.4 nM | 566 nM | 450 nM | Nc1ncn(-c2c(Cl)cc(C(F)(F)F)cc2Cl)c(=O)c1C(=O)Nc1cncc([C@@H]2CCCN2)c1 [Example 118, (S)-4-amino-1-(2,6-dichloro-4-(trifluoromethyl)phenyl)-6-oxo-N-(5-(pyrrolidin-2-yl)pyridin-3-yl)-1,6-dihydropyrimidine-5-carboxamide]
6 | 8.1 nM | 8.1 nM | 502 nM | 414 nM | Nc1ncn(-c2c(Cl)cc(C(F)(F)F)cc2Cl)c(=O)c1C(=O)Nc1cncc([C@@H]2CCCCN2)c1 [Example 119, (S)-4-amino-1-(2,6-dichloro-4-(trifluoromethyl)phenyl)-6-oxo-N-(5-(piperidin-2-yl)pyridin-3-yl)-1,6-dihydropyrimidine-5-carboxamide]
7 | 9.4 nM | 4.4 nM | 274 nM | 442 nM | NCc1cncc(NC(=O)c2c(N)ncn(-c3c(Cl)cc(C(F)(F)F)cc3Cl)c2=O)c1 [Example 120, 4-amino-N-(5-(aminomethyl)pyridin-3-yl)-1-(2,6-dichloro-4-(trifluoromethyl)phenyl)-6-oxo-1,6-dihydropyrimidine-5-carboxamide]
8 | 4.8 nM | 3.3 nM | 203 nM | 266 nM | CN(C)c1cc(Cl)c(-n2cnc(N)c(C(=O)Nc3cncc([C@@H]4CCCCN4)c3)c2=O)c(Cl)c1 [Example 123, (S)-4-amino-1-(2,6-dichloro-4-(dimethylamino)phenyl)-6-oxo-N-(5-(piperidin-2-yl)pyridin-3-yl)-1,6-dihydropyrimidine-5-carboxamide]
9 | 7 nM | 7.8 nM | 404 nM | 393 nM | CC(C)Oc1cc(Cl)c(-n2cnc(N)c(C(=O)Nc3cncc([C@@H]4CCCCN4)c3)c2=O)c(Cl)c1 [Example 124, (S)-4-amino-1-(2,6-dichloro-4-isopropoxyphenyl)-6-oxo-N-(5-(piperidin-2-yl)pyridin-3-yl)-1,6-dihydropyrimidine-5-carboxamide]
10 | 4.9 nM | 2.7 nM | 163 nM | 296 nM | CCCOc1cc(C)c(-n2cnc(N)c(C(=O)Nc3cncc([C@H]4CCCCN4)c3)c2=O)c(C)c1 [Example 125, (R)-4-amino-1-(2,6-dimethyl-4-propoxyphenyl)-6-oxo-N-(5-(piperidin-2-yl)pyridin-3-yl)-1,6-dihydropyrimidine-5-carboxamide]
11 | 18.6 nM | 9.6 nM | 650 nM | 767 nM | CCCOc1cc(C)c(-n2cnc(N)c(C(=O)Nc3cncc(CNC)c3)c2=O)c(C)c1 [Example 127, 4-amino-1-(2,6-dimethyl-4-propoxyphenyl)-N-(5-((methylamino)methyl)pyridin-3-yl)-6-oxo-1,6-dihydropyrimidine-5-carboxamide]
12 | 4.9 nM | 2.3 nM | 159 nM | 202 nM | CCOCc1cc(C)c(-n2cnc(N)c(C(=O)Nc3cncc([C@H]4CCCCN4)c3)c2=O)c(C)c1 [Example 131, (R)-4-amino-1-(4-(ethoxymethyl)-2,6-dimethylphenyl)-6-oxo-N-(5-(piperidin-2-yl)pyridin-3-yl)-1,6-dihydropyrimidine-5-carboxamide]
13 | 9.7 nM | 6.1 nM | 350 nM | 508 nM | CCOc1cc(Cl)c(-n2cnc(N)c(C(=O)Nc3cncc([C@@H]4CCCCN4)c3)c2=O)c(Cl)c1 [Example 133, (S)-4-amino-1-(2,6-dichloro-4-ethoxyphenyl)-6-oxo-N-(5-(piperidin-2-yl)pyridin-3-yl)-1,6-dihydropyrimidine-5-carboxamide]
14 | 3 nM | 1 nM | 96.2 nM | 129 nM | Cc1cc(C)c(-n2cnc(N)c(C(=O)Nc3cncc([C@H]4CCCCN4)c3)c2=O)c(C)c1 [Example 145, (R)-4-amino-1-mesityl-6-oxo-N-(5-(piperidin-2-yl)pyridin-3-yl)-1,6-dihydropyrimidine-5-carboxamide]
15 | 13.4 nM | 8.6 nM | 519 nM | 552 nM | Nc1ncn(-c2c(Cl)cc(F)cc2Cl)c(=O)c1C(=O)Nc1cncc([C@@H]2CCCN2)c1 [Example 149, (S)-4-amino-1-(2,6-dichloro-4-fluorophenyl)-6-oxo-N-(5-(pyrrolidin-2-yl)pyridin-3-yl)-1,6-dihydropyrimidine-5-carboxamide]
16 | 2.7 nM | 2.4 nM | 174 nM | 120 nM | Nc1ncn(-c2c(Cl)cncc2Cl)c(=O)c1C(=O)Nc1cncc([C@H]2CCCCN2)c1 [Example 152, (R)-4-amino-1-(3,5-dichloropyridin-4-yl)-6-oxo-N-(5-(piperidin-2-yl)pyridin-3-yl)-1,6-dihydropyrimidine-5-carboxamide]
17 | 34.9 nM | 8.1 nM | 957 nM | 1250 nM | CCNCc1cncc(NC(=O)c2c(N)ncn(-c3c(C)cc(CC(F)F)cc3C)c2=O)c1 [Example 156, 4-amino-1-(4-(2,2-difluoroethyl)-2,6-dimethylphenyl)-N-(5-((ethylamino)methyl)pyridin-3-yl)-6-oxo-1,6-dihydropyrimidine-5-carboxamide]
18 | 32.5 nM | 11.3 nM | 1160 nM | 1320 nM | COCc1cc(C)c(-n2cnc(N)c(C(=O)Nc3cncc(C4(N)CCC4)c3)c2=O)c(C)c1 [Example 157, 4-amino-N-(5-(1-aminocyclobutyl)pyridin-3-yl)-1-(4-(methoxymethyl)-2,6-dimethylphenyl)-6-oxo-1,6-dihydropyrimidine-5-carboxamide]
